System: mRNA m^6A in A375 cells
Experiment: LC-MS/MS quantification of the m^6A/A ratio in mRNA of A375 cells
Type: cell-based, human
Conditions: A375 melanoma cells, 48 h, 10 μM PD0325901 or 0.1 μM trametinib
Description: FIGS. 6A-6H: Phosphorylation of the m^6A Methyltransferase Complex May Affect Tumorigenesis. (A) Lysates of A375 stable transfectants harvested at different time points after treatment with cycloheximide (CHX) 10 μg/ml were analyzed by immunoblot. (B) LC-MS/MS quantification of the m^6A/A ratio in mRNA of A375 stable transfectants. (C) After 8 h treatment with 10 μM PD0325901 or 0.1 μM tramentib, cell lysates from A375 cells were analyzed by immunoblot. (D) LC-MS/MS quantification of the m^6A/A ratio in mRNA of A375 cells treated with 10 μM PD0325901 or 0.1 μM tramentib for 48 h. (E) After 8hr treatment with 10 μM EOAI3402143 (EOAI) or 30 μM vialinin A , cell lysates from A375 cells were analyzed by immunoblot. […] (H) LC-MS/MS quantification of the m^6A/A ratio in mRNA of SKBR3 and BT474 cells treated with 1 μM tucatinib and 1 μM lapatinib for 48 h. […]
LC-MS/MS quantification of m^6A in poly(A) RNA. mRNA was extracted from the total RNA using 2 rounds of the Dynabeads mRNA purification kit. […] The nucleosides were quantified by using the nucleoside-to-base ion mass transitions of 282 to 150 (m^6A) and 268 to 136 (A). Quantification was carried out by comparison with a standard curve obtained from pure nucleoside. The ratio of m^6A to A was calculated based on the calibrated concentrations (Liu et al., 2018).

O=C(NOC[C@H](O)CO)c1ccc(F)c(F)c1Nc1ccc(I)cc1F [PD0325901]
overall mRNA m^6A levels (m^6A/A ratio): reduce
